Each molecule was assayed against T1, SST5 (Homo sapiens, UniProt P35346) (assay: GPCR radioligand binding (RLB) assay, somatostatin SST5, [125I]SST-14). Conditions: 10 micromolar compound; Example Library 8.
T1 construct: purchased Perkin Elmer BioSignal; host or cells: HEK 293
Description: Recombinant human receptors expressed in HEK 293 cells were used for all experiments. Receptor membrane preparations were purchased from Perkin Elmer BioSignal. The labelled ligand used in somatostatin GPCR RLB assays was [^125I]SST-14 and in melanocortin assays was [^125I]NDP-αMSH. All assays were done in a 96-well plate format using either glass fiber filter mats or filter plates. All reagents purchased were of the highest quality.
Specific assay buffer, incubation and washing conditions were optimized for each receptor however they all followed the same general format. The procedures for both filter mat and filter plate formats are based on the receptor manufacturers recommendations or those described extensively in the literature. The procedures are briefly outlined below.
In assays where filter mats are used we incubate receptor membranes, assay buffer and [^125I] labelled ligand in 96 well microplates. Add compounds to incubation mixture and continue incubation for optimized period. Presoak Filter mat GF/B in 0.5% PEI for ˜2 hr at 4° C. On completion of assay mixture incubation add additional 100 μL/well of assay buffer immediately prior to filtration. Filter the assay mixture onto the GF/B filter mat using a cell harvester. Dry the filter mats prior to sealing them into a scintillation counting bag with scintillant. Radioactivity in each well is detected by liquid scintillation counting.
In assays where filter plates are used Multiscreen glass fiber filter plates (Millipore, Cat No MAFCNOB10) are precoated with 0.5% PEI for ˜2 hr at 4° C. All wells are then washed with 200 µl/well assay buffer and filtered using the Multiscreen Separation System. Subsequently receptor membranes, assay buffer and labelled ligands are added to the wells and equilibrated. Compounds for testing are then added to the mixture and incubation is continued for an optimized time. Plates are then put into the Multiscreen Separation System and the assay mixture is filtered through the plate under vacuum. Each well is then washed several times with assay buffer. Plates are then dried prior to putting sealing tape onto the bottom of the plate. Scintillant is added to each well and radioactivity measured by liquid scintillation counting.
Raw data was analysed according to standard methods using either GraphPad Prism software or IDDBS ActivityBase software.

T1 sequence (P35346 whole entry): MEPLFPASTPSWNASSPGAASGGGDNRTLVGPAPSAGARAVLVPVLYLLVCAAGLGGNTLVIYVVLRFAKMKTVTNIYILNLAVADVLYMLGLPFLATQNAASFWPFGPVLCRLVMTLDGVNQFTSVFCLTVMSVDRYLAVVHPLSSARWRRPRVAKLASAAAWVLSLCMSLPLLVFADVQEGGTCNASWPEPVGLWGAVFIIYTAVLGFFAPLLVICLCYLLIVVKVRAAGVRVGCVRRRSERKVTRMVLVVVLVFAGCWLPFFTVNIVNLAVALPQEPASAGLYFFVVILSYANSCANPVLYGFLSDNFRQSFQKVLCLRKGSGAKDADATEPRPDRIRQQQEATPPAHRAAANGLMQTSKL

Compound	SSTS inhibition at 10 micromolar
CSC1O[C@H](COCc2cccc(N)c2)[C@@H](O)[C@H](OCc2ccccc2)[C@H]1NC(=O)Cc1c[nH]c2ccccc12 (some centres unmarked) [Compound 336]	+ (Indicates inhibition greater than . . . 50%)

Same assay, conditions: 10 micromolar compound; recombinant human receptor membranes (HEK 293)

Compound	SST5 inhibition at 10 micromolar
CSC1OC(COCc2ccc3ccccc3c2)C(O)C(OCc2ccc(Cl)cc2)C1NC(=O)CCNC(=N)N (centres unmarked) [Compound 164]	+ (Indicates inhibition greater than . . . 50%)
COC1C(O)C(COCc2ccc3ccccc3c2)OC(OCc2ccc(Cl)cc2)C1NC(=O)CCCNC(=N)N (centres unmarked) [Compound 90]	+ (Indicates inhibition greater than . . . 50%)
COC1C(O)C(COCc2ccc(-c3ccccc3)cc2)OC(OCc2ccc3ccccc3c2)C1NC(=O)CCCN (centres unmarked) [Compound 69]	+ (Indicates inhibition greater than . . . 50%)
CSC1OC(COCc2ccc(-c3ccccc3)cc2)C(O)C(OCc2ccccc2)C1NC(=O)CCCNC(=N)N (centres unmarked) [Compound 136]	+ (Indicates inhibition greater than . . . 50%)
CSC1OC(COCc2ccccc2)C(O)C(OCc2ccc(Cl)cc2)C1NC(=O)CCCNC(=N)N (centres unmarked) [Compound 148]	+ (Indicates inhibition greater than . . . 50%)
COC[C@H]1OC(OCc2ccc(Cl)cc2)[C@H](NC(=O)CCCN)[C@@H](OCc2ccc3ccccc3c2)[C@@H]1O (some centres unmarked) [Compound 46]	+ (Indicates inhibition greater than . . . 50%)
COC[C@H]1OC(OCc2ccc(Cl)cc2)[C@H](NC(=O)CCCNC(=N)N)[C@@H](OCc2ccc3ccccc3c2)[C@@H]1O (some centres unmarked) [Compound 15]	+ (Indicates inhibition greater than . . . 50%)
CSC1OC(COCc2ccc(Cl)cc2)C(O)C(OCc2ccc(-c3ccccc3)cc2)C1NC(=O)CCNC(=N)N (centres unmarked) [Compound 176]	+ (Indicates inhibition greater than . . . 50%)
CO[C@H]1[C@H](O)[C@@H](COCc2ccc(Cl)cc2)OC(OCCc2ccccc2)[C@@H]1NC(=O)CCCN (some centres unmarked) [Compound 106]	+ (Indicates inhibition greater than . . . 50%)
CSC1OC(COCc2ccccc2)C(O)C(OCc2ccc(-c3ccccc3)cc2)C1NC(=O)CNC(=N)N (centres unmarked) [Compound 168]	+ (Indicates inhibition greater than . . . 50%)
COC1C(O)C(COCc2ccc3ccccc3c2)OC(OCc2ccc(Cl)cc2)C1NC(=O)CCNC(=N)N (centres unmarked) [Compound 88]	+ (Indicates inhibition greater than . . . 50%)
COC[C@H]1OC(OCc2ccc3ccccc3c2)[C@H](NC(=O)CCCN)[C@@H](OCc2ccc3ccccc3c2)[C@@H]1O (some centres unmarked) [Compound 39]	+ (Indicates inhibition greater than . . . 50%)
COC[C@H]1OC(OCCc2ccccc2)[C@H](NC(=O)CCCN)[C@@H](OCc2cccc(O)c2)[C@@H]1O (some centres unmarked) [Compound 27]	+ (Indicates inhibition greater than . . . 50%)
COC[C@H]1OC(OCc2ccccc2)[C@H](NC(=O)CCCN)[C@@H](OCc2cccc(O)c2)[C@@H]1O (some centres unmarked) [Compound 25]	+ (Indicates inhibition greater than . . . 50%)
COC[C@H]1OC(OCc2ccc3ccccc3c2)[C@H](NC(=O)CCCN)[C@@H](OCc2ccccc2)[C@@H]1O (some centres unmarked) [Compound 4]	+ (Indicates inhibition greater than . . . 50%)
COC[C@H]1OC(OCc2ccc(-c3ccccc3)cc2)[C@H](NC(=O)CCNC(=N)N)[C@@H](OCc2ccc3ccccc3c2)[C@@H]1O (some centres unmarked) [Compound 2]	+ (Indicates inhibition greater than . . . 50%)
CSC1OC(COCc2ccccc2)C(O)C(OCc2ccc3ccccc3c2)C1NC(=O)CCN (centres unmarked) [Compound 193]	+ (Indicates inhibition greater than . . . 50%)
CSC1OC(COCc2ccc(Cl)cc2)C(O)C(OCc2ccccc2)C1NC(=O)CCN (centres unmarked) [Compound 127]	+ (Indicates inhibition greater than . . . 50%)
COC[C@H]1OC(OCc2ccc3ccccc3c2)[C@H](NC(=O)CCCN)[C@@H](OCc2ccc(Cl)cc2)[C@@H]1O (some centres unmarked) [Compound 42]	+ (Indicates inhibition greater than . . . 50%)
COC[C@H]1OC(OCc2ccc(Cl)cc2)[C@H](NC(=O)CCCNC(=N)N)[C@@H](OCc2ccc(Cl)cc2)[C@@H]1O (some centres unmarked) [Compound 18]	+ (Indicates inhibition greater than . . . 50%)
COC[C@H]1OC(OCCc2ccccc2)[C@H](NC(=O)CCCN)[C@@H](OCc2ccc(-c3ccccc3)cc2)[C@@H]1O (some centres unmarked) [Compound 48]	+ (Indicates inhibition greater than . . . 50%)
COC[C@H]1OC(OCCc2ccccc2)[C@H](NC(=O)CCCN)[C@@H](OCc2ccc(Cl)cc2)[C@@H]1O (some centres unmarked) [Compound 51]	+ (Indicates inhibition greater than . . . 50%)

Same assay, conditions: 10 micromolar; Example Library 4

Compound	SSTS inhibition at 10 micromolar
COCC1OC(OCc2ccc3ccccc3c2)C(NC(=O)CNC(=N)N)C(OCc2ccc3ccccc3c2)C1O (centres unmarked) [Compound 303]	+ (Indicates inhibition greater than . . . 50%)
COCC1OC(OCCc2ccccc2)C(NC(=O)CCNC(=N)N)C(OCc2ccc(-c3ccccc3)cc2)C1O (centres unmarked) [Compound 275]	+ (Indicates inhibition greater than . . . 50%)
COCC1OC(OCc2ccc(Cl)cc2)C(NC(=O)CN)C(OCc2ccc(Cl)cc2)C1O (centres unmarked) [Compound 242]	+ (Indicates inhibition greater than . . . 50%)
COCC1OC(OCc2ccccc2)C(NC(=O)CCCNC(=N)N)C(OCc2ccc(-c3ccccc3)cc2)C1O (centres unmarked) [Compound 230]	+ (Indicates inhibition greater than . . . 50%)
COCC1OC(OCCc2ccccc2)C(NC(=O)CCCNC(=N)N)C(OCc2ccc(-c3ccccc3)cc2)C1O (centres unmarked) [Compound 277]	+ (Indicates inhibition greater than . . . 50%)
COCC1OC(OCc2ccc(Cl)cc2)C(NC(=O)CCN)C(OCc2ccc3ccccc3c2)C1O (centres unmarked) [Compound 256]	+ (Indicates inhibition greater than . . . 50%)
COCC1OC(OCc2ccc3ccccc3c2)C(NC(=O)CN)C(OCc2ccc3ccccc3c2)C1O (centres unmarked) [Compound 302]	+ (Indicates inhibition greater than . . . 50%)
COCC1OC(OCCc2ccccc2)C(NC(=O)CN)C(OCc2ccc3ccccc3c2)C1O (centres unmarked) [Compound 280]	+ (Indicates inhibition greater than . . . 50%)
COCC1OC(OCc2ccc3ccccc3c2)C(NC(=O)CCN)C(OCc2ccc3ccccc3c2)C1O (centres unmarked) [Compound 304]	+ (Indicates inhibition greater than . . . 50%)
COCC1OC(OCCc2ccccc2)C(NC(=O)CN)C(OCc2ccc(Cl)cc2)C1O (centres unmarked) [Compound 266]	+ (Indicates inhibition greater than . . . 50%)
COCC1OC(OCCc2ccccc2)C(NC(=O)CCCN)C(OCc2ccccc2)C1O (centres unmarked) [Compound 264]	+ (Indicates inhibition greater than . . . 50%)
COCC1OC(OCc2ccc3ccccc3c2)C(NC(=O)CCCN)C(OCc2ccc3ccccc3c2)C1O (centres unmarked) [Compound 306]	+ (Indicates inhibition greater than . . . 50%)

What follows are molecules tested against T2, MC4 (Homo sapiens, UniProt P32245) (assay: GPCR radioligand binding (RLB) assay, melanocortin MC4, [125I]NDP-αMSH). Conditions: 10 micromolar compound; recombinant human receptor membranes (HEK 293).
T2 construct: purchased Perkin Elmer BioSignal; host or cells: HEK 293
In short: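 Membranes from HEK 293 cells expressing the recombinant human receptor were equilibrated with [125I]SST-14 (SST5) or [125I]NDP-αMSH (MC4), then compound added for an optimized incubation. Bound ligand separated by filtration on PEI-coated glass fiber and counted by liquid scintillation.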

T2 sequence (P32245 whole entry): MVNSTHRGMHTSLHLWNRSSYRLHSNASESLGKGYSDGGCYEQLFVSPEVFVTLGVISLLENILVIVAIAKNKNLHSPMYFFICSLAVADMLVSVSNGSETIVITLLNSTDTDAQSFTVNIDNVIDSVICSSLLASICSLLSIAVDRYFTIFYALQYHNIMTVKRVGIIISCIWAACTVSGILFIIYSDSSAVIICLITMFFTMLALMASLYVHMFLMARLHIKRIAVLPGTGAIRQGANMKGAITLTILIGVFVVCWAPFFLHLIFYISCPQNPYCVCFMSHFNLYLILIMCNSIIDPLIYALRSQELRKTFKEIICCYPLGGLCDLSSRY

Compound	MC4 inhibition at 10 micromolar
CSC1OC(COCc2ccc3ccccc3c2)C(O)C(OCc2ccc(Cl)cc2)C1NC(=O)CCNC(=N)N (centres unmarked) [Compound 164]	+ (Indicates inhibition greater than . . . 50%)
COC1C(O)C(COCc2ccc3ccccc3c2)OC(OCc2ccc(Cl)cc2)C1NC(=O)CCCNC(=N)N (centres unmarked) [Compound 90]	+ (Indicates inhibition greater than . . . 50%)
COC1C(O)C(COCc2ccc(-c3ccccc3)cc2)OC(OCc2ccc3ccccc3c2)C1NC(=O)CCCN (centres unmarked) [Compound 69]	+ (Indicates inhibition greater than . . . 50%)
CSC1OC(COCc2ccc(-c3ccccc3)cc2)C(O)C(OCc2ccccc2)C1NC(=O)CCCNC(=N)N (centres unmarked) [Compound 136]	+ (Indicates inhibition greater than . . . 50%)
CSC1OC(COCc2ccccc2)C(O)C(OCc2ccc(Cl)cc2)C1NC(=O)CCCNC(=N)N (centres unmarked) [Compound 148]	+ (Indicates inhibition greater than . . . 50%)
COC[C@H]1OC(OCc2ccc(Cl)cc2)[C@H](NC(=O)CCCN)[C@@H](OCc2ccc3ccccc3c2)[C@@H]1O (some centres unmarked) [Compound 46]	+ (Indicates inhibition greater than . . . 50%)
CSC1O[C@H](COCc2cccc(N)c2)[C@@H](O)[C@H](OCc2ccccc2)[C@H]1NC(=O)Cc1c[nH]c2ccccc12 (some centres unmarked) [Compound 336]	+ (Indicates inhibition greater than . . . 50%)
COC[C@H]1OC(OCc2ccc(Cl)cc2)[C@H](NC(=O)CCCNC(=N)N)[C@@H](OCc2ccc3ccccc3c2)[C@@H]1O (some centres unmarked) [Compound 15]	+ (Indicates inhibition greater than . . . 50%)
CSC1OC(COCc2ccc(Cl)cc2)C(O)C(OCc2ccc(-c3ccccc3)cc2)C1NC(=O)CCNC(=N)N (centres unmarked) [Compound 176]	+ (Indicates inhibition greater than . . . 50%)
CO[C@H]1[C@H](O)[C@@H](COCc2ccc(Cl)cc2)OC(OCCc2ccccc2)[C@@H]1NC(=O)CCCN (some centres unmarked) [Compound 106]	+ (Indicates inhibition greater than . . . 50%)
CSC1OC(COCc2ccccc2)C(O)C(OCc2ccc(-c3ccccc3)cc2)C1NC(=O)CNC(=N)N (centres unmarked) [Compound 168]	+ (Indicates inhibition greater than . . . 50%)
COC1C(O)C(COCc2ccc3ccccc3c2)OC(OCc2ccc(Cl)cc2)C1NC(=O)CCNC(=N)N (centres unmarked) [Compound 88]	+ (Indicates inhibition greater than . . . 50%)
COC[C@H]1OC(OCc2ccc3ccccc3c2)[C@H](NC(=O)CCCN)[C@@H](OCc2ccc3ccccc3c2)[C@@H]1O (some centres unmarked) [Compound 39]	+ (Indicates inhibition greater than . . . 50%)

Same assay, conditions: 10 micromolar; Example Library 4

Compound	MC4 inhibition at 10 micromolar
COCC1OC(OCc2ccc3ccccc3c2)C(NC(=O)CNC(=N)N)C(OCc2ccc3ccccc3c2)C1O (centres unmarked) [Compound 303]	+ (Indicates inhibition greater than . . . 50%)
COCC1OC(OCCc2ccccc2)C(NC(=O)CCNC(=N)N)C(OCc2ccc(-c3ccccc3)cc2)C1O (centres unmarked) [Compound 275]	+ (Indicates inhibition greater than . . . 50%)
COCC1OC(OCc2ccc(Cl)cc2)C(NC(=O)CN)C(OCc2ccc(Cl)cc2)C1O (centres unmarked) [Compound 242]	+ (Indicates inhibition greater than . . . 50%)
COCC1OC(OCc2ccccc2)C(NC(=O)CCCNC(=N)N)C(OCc2ccc(-c3ccccc3)cc2)C1O (centres unmarked) [Compound 230]	+ (Indicates inhibition greater than . . . 50%)
COCC1OC(OCCc2ccccc2)C(NC(=O)CCCNC(=N)N)C(OCc2ccc(-c3ccccc3)cc2)C1O (centres unmarked) [Compound 277]	+ (Indicates inhibition greater than . . . 50%)
COCC1OC(OCc2ccc(Cl)cc2)C(NC(=O)CCN)C(OCc2ccc3ccccc3c2)C1O (centres unmarked) [Compound 256]	+ (Indicates inhibition greater than . . . 50%)
COCC1OC(OCc2ccc3ccccc3c2)C(NC(=O)CN)C(OCc2ccc3ccccc3c2)C1O (centres unmarked) [Compound 302]	+ (Indicates inhibition greater than . . . 50%)
COCC1OC(OCCc2ccccc2)C(NC(=O)CN)C(OCc2ccc3ccccc3c2)C1O (centres unmarked) [Compound 280]	+ (Indicates inhibition greater than . . . 50%)

Reference: patent US7994140B2, “Classes of compounds that interact with GPCRs” (Alchemia Limited, priority 2002, dated 2011)
